Measured values as given in article PMC10819888, “Benzimidazole-Based Derivatives as Apoptotic Antiproliferative Agents: Design, Synthesis, Docking, and Mechanistic Studies” (Molecules, 2024).

Columns and labels:
caspase-8 = test: Caspase-8 activation assay; type: cell-based, human; settings: PC-3 cell line
Description: (§1) For more details, see Supplementary Materials. […]
the positive wells exceeds the limits of the instrument. The O.D. values at 450 nm can only be read after the Stop Solution has been added to each well. If using a reader that […]
100 μl of Stop Solution to each well. Tap side of plate gently to mix. The solution in the wells should change from blue to yellow. Read the absorbance of each well at 450 nm having blanked the plate reader against a chromogen blank composed of 100 μl each of Stabilized Chromogen and Stop Solution. Read the plate within 2 hours after adding the Stop Solution. Use a curve fitting software to generate the standard curve. A four- […]
Read the concentrations for unknown samples and controls from the standard curve. Multiply value(s) obtained for sample(s) by the appropriate dilution factor to correct for the dilution in step 3. Samples […]
Diluent Buffer and reanalyzed.
4.2.4. Caspase-8 activation assay
Cells were obtained from American Type Culture Collection, cells were grown in RPMI […]
tested for caspase8, and lysed with Cell Extraction Buffer. This lysate was diluted in […]
caspase-8 content. (Cells are Plated in a density of 1.2 – 1.8 × 10,000 cells/well in a volume of 100µl complete growth medium + 100 ul of the tested compound per well in a 96-well plate for 24 hours before the enzyme assay for Tubulin.). The absorbance of each microwell was read on a spectro-photometer at 450 nm. A standard curve is prepared from 7human Caspase-8 standard dilutions and human Caspase-8 concentration determined.

Bcl-2 = Bcl-2 inhibition assay; type: cell-based, human; settings: PC-3 cell line; for down-regulation of anti-apoptotic Bcl-2 protein levels: compared to staurosporine
Description: as §1
4.2.6. Bcl-2 inhibition assay
Mix all reagents thoroughly without foaming before use. Wash the microwells twice with approximately 300 μL Wash Buffer per well with thorough aspiration of microwell contents between washes. Take caution not to scratch the surface of the microwells.
After the last wash, empty the wells and tap microwell strips on absorbent pad or paper towel to remove excess Wash Buffer. Use the microwell strips immediately after washing or place upside down on a wet absorbent paper for not longer than 15 minutes.
Add 100 μL of Sample Diluent in duplicate to all standard wells and to the blank wells. Prepare standard (1:2 dilution) in duplicate ranging from 32 ng/mL to 0.5 ng/mL. Add 100 μL of Sample Diluent, in duplicate, to the blank wells.
Add 80 μL of Sample Diluent, in duplicate, to the sample wells. Add 20 μL of each Sample, in duplicate, to the designated wells. Add 50 μL of diluted biotin-conjugate to all wells, including the blank wells. Cover with a plate cover and incubate at room temperature, on a microplate shaker at 100 rpm if available, for 2 hours. Remove plate cover and empty the wells. Wash microwell strips 3 times as described in step 2. Add 100 μL of diluted Streptavidin-HRP to all wells, including the blank wells. Cover with a plate cover and incubate at room temperature, on a microplate shaker at 100 rpm if available, for 1 hour. Remove plate cover and empty the wells. Wash microwell strips […]
3 times as described in step 2. Proceed to the next step. Pipette 100 μl of mixed TMB Substrate Solution to all wells, including the blanks. Incubate the microwell strips at room temperature (18° to 25°C) for about 15 minutes, if available on a rotator set at 100 rpm. Avoid direct exposure to intense light. The point, at which the substrate reaction is stopped, is often determined by the ELISA reader. Many ELISA readers record absorbance only up to 2.0 O.D. Therefore, the color development within individual microwells must be watched by the person running the assay and the substrate reaction stopped before positive wells are no longer properly detectable. Stop the enzyme reaction by quickly pipetting 100 μL of Stop Solution into each well, including the blank wells. It is important that the Stop Solution is spread quickly and uniformly throughout the microwells to completely inactivate the enzyme. Results must be read immediately after the Stop Solution is added or within one hour if the microwell strips are stored at 2 - 8°C in the dark. Read absorbance of each microwell on a spectrophotometer using 450 nm as the primary wavelength.
4.3. Statistical analysis
Computerized Prism 5 program was used to statistically analyzed data using one-way ANOVA test followed by Tukey’s as post ANOVA for multiple comparison at P ≤.05.
Data were presented as mean ± SEM.

SMILES	Caspase-8 Conc (caspase-8)	caspase-8 increase compared to untreated control cell (caspase-8)	caspase-8 level (caspase-8)	Bcl-2 Conc (Bcl-2)	down-regulation of anti-apoptotic Bcl-2 protein levels (Bcl-2)	Caspase-8 Fold Change (caspase-8; vs control)	Bcl-2 Fold Reduction (Bcl-2; vs control)
O=C(NN=Cc1ccc([N+](=O)[O-])cc1)c1ccc2[nH]c(-c3ccc(Cl)cc3)nc2c1 [Compound 4c, N′-(4-Nitrobenzylidene)-2-(4-chlorophenyl)-1H-benzimidazole-5-carbohydrazide]	1.90 ng/mL	16 times	1.90 ng/mL	0.80 ng/mL	equipotent down-regulation	–	–
O=C(NN=Cc1ccc(Cl)cc1)c1ccc2[nH]c(-c3ccc(Cl)cc3)nc2c1 [Compound 4e, N′-(4-Chlorobenzylidene)-2-(4-chlorophenyl)-1H-benzimidazole-5-carbohydrazide]	2.20 ng/mL	18 times	2.20 ng/mL	0.75 ng/mL	equipotent down-regulation	18	4
